{"source": "the kinase profiling compilation of Christmann-Franck et al. (2016)", "assay_in_all_cases": "KINOMEscan competition binding", "settings_in_all_cases": "compound 10.0 µM", "key": {"RIPK1 (human)": {"target": "RIPK1 (human) (UniProt Q13546)"}, "FGFR1 (human)": {"target": "FGFR1 (human) (UniProt P11362)"}, "MAP3K11 (human)": {"target": "MAP3K11 (human) (UniProt Q16584)"}, "TNIK (human)": {"target": "TNIK (human) (UniProt Q9UKE5)", "sequence (Q9UKE5 whole entry, looked up)": "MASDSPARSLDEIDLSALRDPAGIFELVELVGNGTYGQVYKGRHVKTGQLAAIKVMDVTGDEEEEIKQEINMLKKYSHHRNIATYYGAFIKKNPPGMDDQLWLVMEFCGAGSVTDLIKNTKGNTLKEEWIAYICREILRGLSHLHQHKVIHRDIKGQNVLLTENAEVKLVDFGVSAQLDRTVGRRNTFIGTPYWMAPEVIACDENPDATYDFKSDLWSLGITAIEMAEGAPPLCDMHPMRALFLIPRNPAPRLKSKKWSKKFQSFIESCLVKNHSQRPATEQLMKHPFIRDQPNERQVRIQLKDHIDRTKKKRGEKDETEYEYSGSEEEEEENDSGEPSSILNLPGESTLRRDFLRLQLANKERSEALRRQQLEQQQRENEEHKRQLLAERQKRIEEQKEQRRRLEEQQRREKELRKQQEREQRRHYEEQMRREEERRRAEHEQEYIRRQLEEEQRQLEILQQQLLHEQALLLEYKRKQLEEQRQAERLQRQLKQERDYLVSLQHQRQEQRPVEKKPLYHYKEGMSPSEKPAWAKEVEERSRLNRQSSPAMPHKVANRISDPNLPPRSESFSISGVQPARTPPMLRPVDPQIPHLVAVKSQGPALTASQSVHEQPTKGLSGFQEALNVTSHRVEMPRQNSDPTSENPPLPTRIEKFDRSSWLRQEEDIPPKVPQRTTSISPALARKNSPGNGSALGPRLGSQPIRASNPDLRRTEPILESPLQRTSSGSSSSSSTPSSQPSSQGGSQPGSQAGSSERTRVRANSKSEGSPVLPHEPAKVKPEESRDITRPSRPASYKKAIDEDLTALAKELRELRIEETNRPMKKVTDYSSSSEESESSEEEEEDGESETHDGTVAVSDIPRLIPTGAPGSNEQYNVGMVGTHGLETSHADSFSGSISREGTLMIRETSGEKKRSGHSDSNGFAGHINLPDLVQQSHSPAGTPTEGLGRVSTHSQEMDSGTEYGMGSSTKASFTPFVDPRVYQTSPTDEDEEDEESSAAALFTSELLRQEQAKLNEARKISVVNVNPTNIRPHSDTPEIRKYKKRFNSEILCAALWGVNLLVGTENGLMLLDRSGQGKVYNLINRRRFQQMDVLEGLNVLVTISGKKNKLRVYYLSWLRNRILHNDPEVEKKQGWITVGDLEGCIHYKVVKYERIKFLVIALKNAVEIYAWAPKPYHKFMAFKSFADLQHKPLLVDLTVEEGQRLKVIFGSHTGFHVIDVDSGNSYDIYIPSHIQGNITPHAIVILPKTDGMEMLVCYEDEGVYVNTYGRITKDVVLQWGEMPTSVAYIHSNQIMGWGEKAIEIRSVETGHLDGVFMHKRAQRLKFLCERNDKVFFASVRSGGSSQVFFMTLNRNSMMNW"}, "MTOR (human)": {"target": "MTOR (human) (UniProt P42345)"}, "STK36 (human)": {"target": "STK36 (human) (UniProt Q9NRP7)"}, "PIK3CD (human)": {"target": "PIK3CD (human) (UniProt O00329)"}, "FRK (human)": {"target": "FRK (human) (UniProt P42685)"}, "RAF1 (human)": {"target": "RAF1 (human) (UniProt P04049)"}, "STK35 (human)": {"target": "STK35 (human) (UniProt Q8TDR2)"}, "HIPK1 (human)": {"target": "HIPK1 (human) (UniProt Q86Z02)"}, "NUAK1 (human)": {"target": "NUAK1 (human) (UniProt O60285)"}, "STK3 (human)": {"target": "STK3 (human) (UniProt Q13188)"}, "MYLK4 (human)": {"target": "MYLK4 (human) (UniProt Q86YV6)"}, "TNNI3K (human)": {"target": "TNNI3K (human) (UniProt Q59H18)"}, "[1]": {"target": "JAK1 JH2 pseudokinase (human) (UniProt P23458)"}, "TRPM6 (human)": {"target": "TRPM6 (human) (UniProt Q9BX84)"}, "MLTK (human)": {"target": "MLTK (human) (UniProt Q9NYL2)", "sequence (Q9NYL2 whole entry, looked up)": "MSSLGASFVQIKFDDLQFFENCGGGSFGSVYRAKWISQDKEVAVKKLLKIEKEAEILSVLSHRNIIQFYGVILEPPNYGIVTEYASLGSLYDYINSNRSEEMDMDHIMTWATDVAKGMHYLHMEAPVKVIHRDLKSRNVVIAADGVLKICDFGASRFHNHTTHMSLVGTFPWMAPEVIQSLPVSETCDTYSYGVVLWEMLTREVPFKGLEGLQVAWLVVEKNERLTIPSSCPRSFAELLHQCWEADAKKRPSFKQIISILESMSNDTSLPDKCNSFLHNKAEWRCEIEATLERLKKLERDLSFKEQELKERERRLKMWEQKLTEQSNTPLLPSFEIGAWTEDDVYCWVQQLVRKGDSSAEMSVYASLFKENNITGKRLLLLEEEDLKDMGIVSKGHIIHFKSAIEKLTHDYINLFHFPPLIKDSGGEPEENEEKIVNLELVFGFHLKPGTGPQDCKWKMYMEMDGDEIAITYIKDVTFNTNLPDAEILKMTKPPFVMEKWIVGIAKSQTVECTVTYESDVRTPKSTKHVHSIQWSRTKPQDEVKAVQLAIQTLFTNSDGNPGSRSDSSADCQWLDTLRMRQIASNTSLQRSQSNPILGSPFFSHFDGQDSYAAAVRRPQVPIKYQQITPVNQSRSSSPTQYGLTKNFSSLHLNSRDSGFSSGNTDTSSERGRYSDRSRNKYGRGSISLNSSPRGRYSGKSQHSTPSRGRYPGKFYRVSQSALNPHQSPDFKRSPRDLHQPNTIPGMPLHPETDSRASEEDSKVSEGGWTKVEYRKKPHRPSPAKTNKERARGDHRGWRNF"}, "SLK (human)": {"target": "SLK (human) (UniProt Q9H2G2)"}, "ROS1 (human)": {"target": "ROS1 (human) (UniProt P08922)"}, "MARK3 (human)": {"target": "MARK3 (human) (UniProt P27448)"}, "HCK (human)": {"target": "HCK (human) (UniProt P08631)"}, "TIE1 (human)": {"target": "TIE1 (human) (UniProt P35590)"}, "CDK17 (human)": {"target": "CDK17 (human) (UniProt Q00537)", "sequence (Q00537 whole entry, looked up)": "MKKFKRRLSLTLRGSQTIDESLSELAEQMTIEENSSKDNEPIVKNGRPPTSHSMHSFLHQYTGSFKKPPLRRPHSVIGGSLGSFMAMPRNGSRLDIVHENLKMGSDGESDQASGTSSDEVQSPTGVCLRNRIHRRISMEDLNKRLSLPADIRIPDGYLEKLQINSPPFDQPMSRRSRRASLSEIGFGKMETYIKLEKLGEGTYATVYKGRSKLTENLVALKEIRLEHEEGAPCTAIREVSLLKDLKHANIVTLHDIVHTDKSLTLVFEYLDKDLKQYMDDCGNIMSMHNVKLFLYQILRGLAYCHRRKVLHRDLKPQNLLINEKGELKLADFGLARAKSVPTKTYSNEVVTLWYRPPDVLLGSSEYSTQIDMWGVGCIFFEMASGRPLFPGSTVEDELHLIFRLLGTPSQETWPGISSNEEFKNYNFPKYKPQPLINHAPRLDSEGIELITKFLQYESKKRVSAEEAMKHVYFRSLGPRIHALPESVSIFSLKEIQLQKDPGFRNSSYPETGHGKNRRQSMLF"}, "PHKG2 (human)": {"target": "PHKG2 (human) (UniProt P15735)"}, "MAPK11 (human)": {"target": "MAPK11 (human) (UniProt Q15759)"}, "MAP3K9 (human)": {"target": "MAP3K9 (human) (UniProt P80192)", "sequence (P80192 whole entry, looked up)": "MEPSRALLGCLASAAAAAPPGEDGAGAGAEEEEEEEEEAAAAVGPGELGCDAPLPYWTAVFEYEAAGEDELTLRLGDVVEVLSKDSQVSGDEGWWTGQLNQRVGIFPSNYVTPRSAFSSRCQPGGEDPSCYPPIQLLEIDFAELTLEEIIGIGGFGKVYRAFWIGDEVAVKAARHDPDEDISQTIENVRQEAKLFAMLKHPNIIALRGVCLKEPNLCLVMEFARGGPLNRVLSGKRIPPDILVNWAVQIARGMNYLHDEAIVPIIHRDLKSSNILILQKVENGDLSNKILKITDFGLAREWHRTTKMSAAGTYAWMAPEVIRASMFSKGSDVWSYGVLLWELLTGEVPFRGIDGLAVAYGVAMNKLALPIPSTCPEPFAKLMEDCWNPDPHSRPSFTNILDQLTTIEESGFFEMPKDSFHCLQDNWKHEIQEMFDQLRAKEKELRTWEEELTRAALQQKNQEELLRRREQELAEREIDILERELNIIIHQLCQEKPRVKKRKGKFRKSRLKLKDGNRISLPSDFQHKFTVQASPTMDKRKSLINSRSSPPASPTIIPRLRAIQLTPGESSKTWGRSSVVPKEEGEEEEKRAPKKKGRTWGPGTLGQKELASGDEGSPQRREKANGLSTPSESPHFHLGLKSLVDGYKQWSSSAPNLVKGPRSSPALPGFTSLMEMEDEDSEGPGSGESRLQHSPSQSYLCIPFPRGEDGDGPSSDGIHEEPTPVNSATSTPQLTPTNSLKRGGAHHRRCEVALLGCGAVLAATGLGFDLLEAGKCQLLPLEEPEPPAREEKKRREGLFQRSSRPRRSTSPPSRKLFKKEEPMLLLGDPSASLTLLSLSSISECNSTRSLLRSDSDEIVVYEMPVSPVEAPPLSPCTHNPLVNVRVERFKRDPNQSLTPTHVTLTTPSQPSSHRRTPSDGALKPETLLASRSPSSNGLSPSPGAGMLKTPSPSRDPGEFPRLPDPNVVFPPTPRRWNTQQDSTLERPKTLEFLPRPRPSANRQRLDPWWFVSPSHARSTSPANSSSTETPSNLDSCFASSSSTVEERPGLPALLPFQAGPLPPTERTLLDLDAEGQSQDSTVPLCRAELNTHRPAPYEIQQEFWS"}, "TAOK2 (human)": {"target": "TAOK2 (human) (UniProt Q9UL54)"}, "MKNK2 (human)": {"target": "MKNK2 (human) (UniProt Q9HBH9)", "sequence (Q9HBH9 whole entry, looked up)": "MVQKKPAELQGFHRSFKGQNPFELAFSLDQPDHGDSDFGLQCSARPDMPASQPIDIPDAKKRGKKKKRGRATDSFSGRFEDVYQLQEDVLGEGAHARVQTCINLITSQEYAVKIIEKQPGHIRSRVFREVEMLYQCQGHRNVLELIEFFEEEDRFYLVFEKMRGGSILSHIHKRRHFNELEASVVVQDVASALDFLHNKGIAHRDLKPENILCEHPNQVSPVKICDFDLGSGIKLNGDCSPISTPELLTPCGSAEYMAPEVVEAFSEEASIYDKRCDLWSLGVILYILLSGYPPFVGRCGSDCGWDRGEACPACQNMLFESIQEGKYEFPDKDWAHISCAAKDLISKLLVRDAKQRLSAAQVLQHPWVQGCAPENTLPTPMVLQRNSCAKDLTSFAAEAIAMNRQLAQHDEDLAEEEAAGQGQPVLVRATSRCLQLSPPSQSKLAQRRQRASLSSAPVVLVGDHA"}, "PRKX (human)": {"target": "PRKX (human) (UniProt P51817)"}, "MAPKAPK5 (human)": {"target": "MAPKAPK5 (human) (UniProt Q8IW41)"}, "MYLK (human)": {"target": "MYLK (human) (UniProt Q15746)"}, "[2]": {"system": "MET (human), P08581 [Y1235D]"}, "SGK3 (human)": {"target": "SGK3 (human) (UniProt Q96BR1)"}, "EPHB1 (human)": {"target": "EPHB1 (human) (UniProt P54762)"}, "CAMK2G (human)": {"target": "CAMK2G (human) (UniProt Q13555)"}, "TAOK1 (human)": {"target": "TAOK1 (human) (UniProt Q7L7X3)"}, "AURKC (human)": {"target": "AURKC (human) (UniProt Q9UQB9)"}, "ERBB4 (human)": {"target": "ERBB4 (human) (UniProt Q15303)"}, "PAK7 (human)": {"target": "PAK7 (human) (UniProt Q9P286)", "sequence (Q9P286 whole entry, looked up)": "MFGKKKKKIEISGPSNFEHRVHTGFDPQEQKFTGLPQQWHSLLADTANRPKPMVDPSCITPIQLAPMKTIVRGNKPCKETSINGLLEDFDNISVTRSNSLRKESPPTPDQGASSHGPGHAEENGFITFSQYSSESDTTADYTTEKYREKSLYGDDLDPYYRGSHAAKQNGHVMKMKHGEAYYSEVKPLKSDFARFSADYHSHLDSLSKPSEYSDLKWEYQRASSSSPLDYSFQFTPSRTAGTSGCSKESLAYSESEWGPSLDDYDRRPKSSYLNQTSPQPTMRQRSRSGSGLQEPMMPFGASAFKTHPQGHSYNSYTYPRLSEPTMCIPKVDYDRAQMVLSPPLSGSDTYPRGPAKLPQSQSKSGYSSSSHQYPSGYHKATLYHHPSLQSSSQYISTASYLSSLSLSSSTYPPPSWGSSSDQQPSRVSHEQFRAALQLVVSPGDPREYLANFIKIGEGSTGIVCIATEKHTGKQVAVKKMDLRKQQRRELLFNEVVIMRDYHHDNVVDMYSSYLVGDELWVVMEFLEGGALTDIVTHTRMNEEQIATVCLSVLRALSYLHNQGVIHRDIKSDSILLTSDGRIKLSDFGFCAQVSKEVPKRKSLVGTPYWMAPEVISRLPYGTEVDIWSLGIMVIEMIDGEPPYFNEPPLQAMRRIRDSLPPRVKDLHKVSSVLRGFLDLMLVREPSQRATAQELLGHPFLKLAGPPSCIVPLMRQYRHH"}}, "data": [{"smiles": "COc1cc2ncn(-c3cc(OCc4ccccc4C(F)(F)F)c(C(N)=O)s3)c2cc1OC", "values": [{"measurement": "kinase still bound, per cent of control", "setting": "RIPK1 (human)", "value": 74, "unit": "%"}, {"measurement": "kinase still bound, per cent of control", "setting": "FGFR1 (human)", "value": 43, "unit": "%"}, {"measurement": "kinase still bound, per cent of control", "setting": "MAP3K11 (human)", "value": 81, "unit": "%"}, {"measurement": "kinase still bound, per cent of control", "setting": "TNIK (human)", "value": 32, "unit": "%"}, {"measurement": "kinase still bound, per cent of control", "setting": "MTOR (human)", "value": 78, "unit": "%"}, {"measurement": "kinase still bound, per cent of control", "setting": "STK36 (human)", "value": 76, "unit": "%"}, {"measurement": "kinase still bound, per cent of control", "setting": "PIK3CD (human)", "value": 78, "unit": "%"}, {"measurement": "kinase still bound, per cent of control", "setting": "FRK (human)", "value": 82, "unit": "%"}, {"measurement": "kinase still bound, per cent of control", "setting": "RAF1 (human)", "value": 87, "unit": "%"}, {"measurement": "kinase still bound, per cent of control", "setting": "STK35 (human)", "value": 56, "unit": "%"}, {"measurement": "kinase still bound, per cent of control", "setting": "HIPK1 (human)", "value": 84, "unit": "%"}, {"measurement": "kinase still bound, per cent of control", "setting": "NUAK1 (human)", "value": 21, "unit": "%"}, {"measurement": "kinase still bound, per cent of control", "setting": "STK3 (human)", "value": 1.8, "unit": "%"}, {"measurement": "kinase still bound, per cent of control", "setting": "MYLK4 (human)", "value": 17, "unit": "%"}, {"measurement": "kinase still bound, per cent of control", "setting": "TNNI3K (human)", "value": 81, "unit": "%"}, {"measurement": "kinase still bound, per cent of control", "setting": "[1]", "value": 100, "unit": "%"}, {"measurement": "kinase still bound, per cent of control", "setting": "TRPM6 (human)", "value": 100, "unit": "%"}, {"measurement": "kinase still bound, per cent of control", "setting": "MLTK (human)", "value": 74, "unit": "%"}, {"measurement": "kinase still bound, per cent of control", "setting": "SLK (human)", "value": 0.25, "unit": "%"}, {"measurement": "kinase still bound, per cent of control", "setting": "ROS1 (human)", "value": 78, "unit": "%"}, {"measurement": "kinase still bound, per cent of control", "setting": "MARK3 (human)", "value": 78, "unit": "%"}, {"measurement": "kinase still bound, per cent of control", "setting": "HCK (human)", "value": 72, "unit": "%"}, {"measurement": "kinase still bound, per cent of control", "setting": "TIE1 (human)", "value": 31, "unit": "%"}, {"measurement": "kinase still bound, per cent of control", "setting": "CDK17 (human)", "value": 100, "unit": "%"}, {"measurement": "kinase still bound, per cent of control", "setting": "PHKG2 (human)", "value": 100, "unit": "%"}, {"measurement": "kinase still bound, per cent of control", "setting": "MAPK11 (human)", "value": 88, "unit": "%"}, {"measurement": "kinase still bound, per cent of control", "setting": "MAP3K9 (human)", "value": 71, "unit": "%"}, {"measurement": "kinase still bound, per cent of control", "setting": "TAOK2 (human)", "value": 100, "unit": "%"}, {"measurement": "kinase still bound, per cent of control", "setting": "MKNK2 (human)", "value": 76, "unit": "%"}, {"measurement": "kinase still bound, per cent of control", "setting": "PRKX (human)", "value": 98, "unit": "%"}, {"measurement": "kinase still bound, per cent of control", "setting": "MAPKAPK5 (human)", "value": 91, "unit": "%"}, {"measurement": "kinase still bound, per cent of control", "setting": "MYLK (human)", "value": 50, "unit": "%"}, {"measurement": "kinase still bound, per cent of control", "setting": "[2]", "value": 40, "unit": "%"}, {"measurement": "kinase still bound, per cent of control", "setting": "SGK3 (human)", "value": 83, "unit": "%"}, {"measurement": "kinase still bound, per cent of control", "setting": "EPHB1 (human)", "value": 96, "unit": "%"}, {"measurement": "kinase still bound, per cent of control", "setting": "CAMK2G (human)", "value": 83, "unit": "%"}, {"measurement": "kinase still bound, per cent of control", "setting": "TAOK1 (human)", "value": 47, "unit": "%"}, {"measurement": "kinase still bound, per cent of control", "setting": "AURKC (human)", "value": 27, "unit": "%"}, {"measurement": "kinase still bound, per cent of control", "setting": "ERBB4 (human)", "value": 80, "unit": "%"}, {"measurement": "kinase still bound, per cent of control", "setting": "PAK7 (human)", "value": 98, "unit": "%"}]}]}
